Patent US7396837B2, “Antitumoral analogs of lamellarins” (Pharma Mar, S.A.U., priority 2002, dated 2008)

What was measured:
Format in all cases: cell-based
K-562 = experiment: SRB colorimetric cell growth inhibition assay, K-562; settings: Homo sapiens, K562, K-562
Method in brief: (§1)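 Cells are kept under uninterrupted exposure to compound. Staining with sulforhodamine B then measures cell growth and viability. Triplicate data give mean ± SD, from which growth inhibition, total growth inhibition and lethal concentration values follow.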

A-549 = experiment: SRB colorimetric cell growth inhibition assay, A-549; settings: Homo sapiens, A549, A-549
Method in brief: as §1

SK-MEL-28 = experiment: SRB colorimetric cell growth inhibition assay, SK-MEL-28; settings: Homo sapiens, SK-MEL-28, MEL-28
Method in brief: as §1

HT-29 = experiment: SRB colorimetric cell growth inhibition assay, HT-29; settings: Homo sapiens, HT-29, HT-29
Method in brief: as §1

LoVo = experiment: SRB colorimetric cell growth inhibition assay, LoVo; settings: Homo sapiens, LoVo
Method in brief: as §1

LoVo-Dox = experiment: SRB colorimetric cell growth inhibition assay, LoVo-Dox (MDR); settings: Homo sapiens, LOVO-DOX
Method in brief: as §1

DU-145 = experiment: SRB colorimetric cell growth inhibition assay, DU-145; settings: Homo sapiens, DU-145, DU-145
Method in brief: as §1

LNCaP = experiment: SRB colorimetric cell growth inhibition assay, LNCaP; settings: Homo sapiens, LNCaP, LN-caP
Method in brief: as §1

SK-BR-3 = experiment: SRB colorimetric cell growth inhibition assay, SK-BR-3; settings: Homo sapiens, SK-BR-3, SK-BR-3
Method in brief: as §1

IGROV = experiment: SRB colorimetric cell growth inhibition assay, IGROV; settings: Homo sapiens, IGROV
Method in brief: as §1

IGROV-ET = experiment: SRB colorimetric cell growth inhibition assay, IGROV-ET (ET-743 resistant); settings: Homo sapiens, IGROV-ET
Method in brief: as §1

PANC-1 = experiment: SRB colorimetric cell growth inhibition assay, PANC-1; settings: Homo sapiens, PANC-1, PANC-1
Method in brief: as §1

SKOV-3 = experiment: SRB colorimetric cell growth inhibition assay, SKOV-3; settings: Homo sapiens
Method in brief: (§2)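 SRB colorimetric readout of cell growth/viability in 96-well format. Means ± SD from triplicate wells; GI (growth inhibition), TGI (total growth inhibition, cytostatic) and LC (cell killing, cytotoxic) parameters derived.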

[1] = SRB colorimetric cell growth inhibition assay, H-MEC-1; settings: human, H-MEC-1 cells, H-MEC-1; LC=cell killing (cytotoxic effect); read-out: LC50 H-MEC-1
Method in brief: as §2

H-MEC-1 = experiment: as above; settings: Homo sapiens, HMEC-1, H-MEC-1
Method in brief: as §2

**Q.** With `COc1cc(-c2c3n(c4c(=O)oc5cc(OC(=O)[C@@H]6CCCN6)c(OC)cc5c24)CCc2c-3cc(OC)c(OC)c2OC(=O)[C@@H]2CCCN2)ccc1OC(=O)[C@@H]1CCCN1` [Compound 118] as the compound, how does the GI50 (K-562; GI=growth inhibition, read-out: GI50 K-562) read?
**A.** 1170 nM

**Q.** And the CC50 (K-562; cell killing (cytotoxic effect), read-out: LC50 K-562)?
**A.** 6570 nM

**Q.** And the IC (TGI) (K-562; total growth inhibition (cytostatic effect), read-out: TGI K-562)?
**A.** 2770 nM

**Q.** And the GI50 (A-549; GI=growth inhibition, read-out: GI50 A-549)?
**A.** 1800 nM

**Q.** What about the CC50 (A-549; cell killing (cytotoxic effect), read-out: LC50 A-549) of the same compound?
**A.** 6990 nM

**Q.** And the IC (TGI) (A-549; total growth inhibition (cytostatic effect), read-out: TGI A-549)?
**A.** 3550 nM

**Q.** And the GI50 (SK-MEL-28; GI=growth inhibition, read-out: GI50 MEL-28)?
**A.** 1650 nM

**Q.** And the CC50 (SK-MEL-28; LC=cell killing (cytotoxic effect), read-out: LC50 MEL-28)?
**A.** 5490 nM

**Q.** And the IC (TGI) (SK-MEL-28; TGI=total growth inhibition (cytostatic effect), read-out: TGI MEL-28)?
**A.** 3000 nM

**Q.** And the GI50 (HT-29; GI=growth inhibition, read-out: GI50 HT-29)?
**A.** 1920 nM

**Q.** And the CC50 (HT-29; cell killing (cytotoxic effect), read-out: LC50 HT-29)?
**A.** 6590 nM

**Q.** And the IC (TGI) (HT-29; total growth inhibition (cytostatic effect), read-out: TGI HT-29)?
**A.** 3560 nM

**Q.** And the GI50 (LoVo; GI=growth inhibition, read-out: GI50 LOVO)?
**A.** 1350 nM

**Q.** What about the CC50 (LoVo; cell killing (cytotoxic effect), read-out: LC50 LOVO) of the same compound?
**A.** 5430 nM

**Q.** What about the IC (TGI) (LoVo; total growth inhibition (cytostatic effect), read-out: TGI LOVO) of the same compound?
**A.** 2700 nM

**Q.** And the GI50 (LoVo-Dox; GI=growth inhibition, read-out: GI50 LOVO-DOX)?
**A.** 450 nM

**Q.** And the CC50 (LoVo-Dox; cell killing (cytotoxic effect), read-out: LC50 LOVO-DOX)?
**A.** 3860 nM

**Q.** What about the IC (TGI) (LoVo-Dox; total growth inhibition (cytostatic effect), read-out: TGI LOVO-DOX) of the same compound?
**A.** 1300 nM

**Q.** What about the GI50 (DU-145; GI=growth inhibition, read-out: GI50 DU-145) of the same compound?
**A.** 1600 nM

**Q.** What about the CC50 (DU-145; LC=cell killing (cytotoxic effect), read-out: LC50 DU-145) of the same compound?
**A.** 5640 nM

**Q.** And the IC (TGI) (DU-145; TGI=total growth inhibition (cytostatic effect), read-out: TGI DU-145)?
**A.** 3000 nM

**Q.** And the GI50 (LNCaP; GI=growth inhibition, read-out: GI50 LN-caP)?
**A.** 987 nM

**Q.** What about the CC50 (LNCaP; LC=cell killing (cytotoxic effect), read-out: LC50 LN-caP) of the same compound?
**A.** 4760 nM

**Q.** And the IC (TGI) (LNCaP; TGI=total growth inhibition (cytostatic effect), read-out: TGI LN-caP)?
**A.** 2160 nM

**Q.** And the GI50 (SK-BR-3; GI=growth inhibition, read-out: GI50 SK-BR-3)?
**A.** 639 nM

**Q.** What about the CC50 (SK-BR-3; LC=cell killing (cytotoxic effect), read-out: LC50 SK-BR-3) of the same compound?
**A.** 6250 nM

**Q.** What about the IC (TGI) (SK-BR-3; TGI=total growth inhibition (cytostatic effect), read-out: TGI SK-BR-3) of the same compound?
**A.** 2040 nM

**Q.** What about the GI50 (IGROV; GI=growth inhibition, read-out: GI50 IGROV) of the same compound?
**A.** 970 nM

**Q.** And the CC50 (IGROV; LC=cell killing (cytotoxic effect), read-out: LC50 IGROV)?
**A.** 5470 nM

**Q.** What about the IC (TGI) (IGROV; TGI=total growth inhibition (cytostatic effect), read-out: TGI IGROV) of the same compound?
**A.** 2300 nM

**Q.** And the GI50 (IGROV-ET; GI=growth inhibition, read-out: GI50 IGROV-ET)?
**A.** 876 nM

**Q.** And the CC50 (IGROV-ET; LC=cell killing (cytotoxic effect), read-out: LC50 IGROV-ET)?
**A.** 6170 nM

**Q.** What about the IC (TGI) (IGROV-ET; TGI=total growth inhibition (cytostatic effect), read-out: TGI IGROV-ET) of the same compound?
**A.** 2330 nM

**Q.** And the GI50 (PANC-1; GI=growth inhibition, read-out: GI50 PANC-1)?
**A.** 1080 nM

**Q.** And the CC50 (PANC-1; cell killing (cytotoxic effect), read-out: LC50 PANC-1)?
**A.** 5350 nM

**Q.** What about the IC (TGI) (PANC-1; total growth inhibition (cytostatic effect), read-out: TGI PANC-1) of the same compound?
**A.** 2400 nM

**Q.** And the GI50 (SKOV-3; SK-OV-3, SKOV-3, GI=growth inhibition, read-out: GI50 SKOV-3)?
**A.** 2020 nM

**Q.** And the CC50 (SKOV-3; SK-OV-3, SKOV-3, LC=cell killing (cytotoxic effect), read-out: LC50 SKOV-3)?
**A.** 8220 nM

**Q.** What about the IC (TGI) (SKOV-3; SK-OV-3, SKOV-3, TGI=total growth inhibition (cytostatic effect), read-out: TGI SKOV-3) of the same compound?
**A.** 4080 nM

**Q.** And the CC50 [1]?
**A.** 6450 nM

**Q.** And the GI50 (H-MEC-1; GI=growth inhibition)?
**A.** 1450 nM

**Q.** And the IC (TGI) (H-MEC-1; TGI=total growth inhibition (cytostatic effect), read-out: TGI H-MEC-1)?
**A.** 3060 nM
